Assay results: publication PMC11040670, “Mechanistic and Kinetic Insights into Cellular Uptake of Biomimetic Dinitrosyl Iron Complexes and Intracellular Delivery of NO for Activation of Cytoprotective HO-1” (JACS Au, 2024)

Assays:
MSC/N2a/HCEC [1] = test: Intracellular release of NO, stated jointly for MSC/N2a/HCEC; format: cell-based
Procedure: Intracellular release of NO by DNIC–COOH was validated using the fluorescence probe 4-amino-5-methylamino-2′,7′-difluorofluorescein diacetate (DAF-FM) in combination with fluorescence analysis techniques. Briefly, the MSC cells (or N2a and HCEC cells) were seeded onto a 96-well black plate at a density of 6 × 10^3 cells/well (or 1 × 10^4 cells/well for N2a and 8 × 10^3 cells/well for HCEC cells) and incubated at 37 °C overnight. On the next day, the MSC cells were first treated with 10 μM of DAF-FM (or 5 μM for N2a and HCEC cells) and incubated at 37 °C for 0.5 h. […] Fluorescence intensity of the cells was then recorded using a microplate reader (SpectraMax iD3, Molecular Devices, San Jose, CA) with an excitation wavelength at 485 nm and an emission wavelength at 525 nm. Three independent experiments were executed to measure the time-dependent change of average fluorescence intensity. Time-dependent change of average fluorescence intensity for the MSC/N2a/HCEC cells with sequential treatment of DAF-FM (10 μM for MSC cells, 5 μM for N2a cells, 5 μM for HCEC cells; 0.5 h) and DNIC–COOMe (2.5 μM for MSC cells, 10 μM for N2a cells, 1 μM for HCEC cells) was determined in a similar manner.

HO-1 protein = test: ELISA of intracellular HO-1 protein in MSC; format: cell-based, human
Procedure: After the treatments of DNIC–COOH/DNIC–COOMe to the MSC cells following the procedure described above, the intracellular level of HO-1 protein in DNIC-treated MSC cells was also determined by ELISA (Abcam, Cambridge, MA) according to the manufacturers’ protocols.

MSC/N2a/HCEC [2] = test: Cell viability (CCK-8) of MSC/N2a/HCEC treated with DNICs; format: cell-based; conditions: 24 h; for effect on cell viability: N2a/HCEC
Procedure: Cell viability study of MSC, N2a, and HCEC cells with or without the treatment of DNIC–COOH was performed using a Cell Counting Kit-8 (IMT Formosa New Materials Co., Ltd., Taiwan) according to the manufacturer’s protocol. Briefly, cells were seeded into a 96-well plate at a density of 4 × 10^3 cells/well for MSC, 1 × 10^4 cells/well for N2a, and 8 × 10^3 cells/well for HCEC, respectively, and incubated overnight. On the next day, cells were treated with DNIC–COOH at different concentrations and incubated for 24 h. The culture medium was then removed before the cells were washed with DPBS. After addition of fresh medium containing CCK-8 solution to the cells and incubation for 1–3 h, the absorbance at 450 nm was then measured on a microplate reader (SpectraMax iD3, Molecular Devices, San Jose, CA) with a reference wavelength of 650 nm. Three independent experiments were executed, and the results were represented as mean ± SEM% (n = 3) with the untreated cells (control) as 100% viability. Cell viability studies of MSC/N2a/HCEC cells (1) with the treatment of DNIC–COOMe for 24 h, (2) with the treatment of NEM for 0.5 h, (3) with the treatment of chlorpromazine (CPZ; TCI) for 0.5 h, (4) with the treatment of methyl-β-cyclodextrin (MβCD; Thermo Fisher Scientific) for 0.5 h, (5) with the treatment of genistein (Alfa Chemistry) for 0.5 h, (6) with the sequential treatments of ODQ for 1 h and DNIC–COOH for 3 h (MSC)/10 h (N2a)/6 h (HCEC), and (7) with the cotreatment of PTIO and DNIC–COOH for 3 h (MSC)/10 h (N2a)/6 h (HCEC), respectively, were performed in a similar manner. In addition to CCK-8 assay, a live/dead staining was performed using a ViaQuant Viability/Cytotoxicity Kit (GeneCopoeia, Rockville, MD) according to the manufacturer’s instruction.

Structure (SMILES) | tmax for intracellular release of free NO (MSC/N2a/HCEC [1]) | expression of HO-1 protein (HO-1 protein; at 8 h, 100 μM DNIC–COOH) | biocompatibility in comparison with DNIC–COOMe (MSC/N2a/HCEC [2]; MSC/N2a/HCEC) | effect on cell viability (MSC/N2a/HCEC [2]) | expression of HO-1 protein (HO-1 protein; at 6 h, 2.5 μM DNIC–COOMe)
O=[N][Fe]1([N]=O)[SH](CCC(=O)O)[Fe]([N]=O)([N]=O)[SH]1CCC(=O)O (stereo not shown) [DNIC–COOH, [(NO)2Fe(μ-SCH2CH2COOH)2Fe(NO)2]] | 4 to 6 h | 32.0 ± 4.4 fold | improved biocompatibility | dose-dependent cell-proliferation effect | –
COC(=O)CC[SH]1[Fe]([N]=O)([N]=O)[SH](CCC(=O)OC)[Fe]1([N]=O)[N]=O (stereo not shown) [DNIC–COOMe, [(NO)2Fe(μ-SCH2CH2COOCH3)2Fe(NO)2]] | 1 to 2 h | – | – | dose-dependent cell-proliferation effect | 8.1 ± 0.9 fold
